Test results taken from patent publication US20070276025A1, “Indirubin-Type Compounds, Compositions, and Methods for Their Use” (priority 2003, published 2007).
Where two headings read alike, the source gives them in different places.

Experiments:
[1] = target: T1, AhR (Homo sapiens, UniProt P35869); assay: Yeast AhR reporter assay (β-galactosidase); conditions: read-out: EC50 AhR (yeast); Table 4; * = inactive at the indicated highest concentration tested
[2] = target: T2, AhR (Mus musculus, UniProt P30561); conditions: read-out: EC50 AhR (hepatoma cell line); Table 4; EGFP at 24 hours
T2 sequence (P30561 1-848): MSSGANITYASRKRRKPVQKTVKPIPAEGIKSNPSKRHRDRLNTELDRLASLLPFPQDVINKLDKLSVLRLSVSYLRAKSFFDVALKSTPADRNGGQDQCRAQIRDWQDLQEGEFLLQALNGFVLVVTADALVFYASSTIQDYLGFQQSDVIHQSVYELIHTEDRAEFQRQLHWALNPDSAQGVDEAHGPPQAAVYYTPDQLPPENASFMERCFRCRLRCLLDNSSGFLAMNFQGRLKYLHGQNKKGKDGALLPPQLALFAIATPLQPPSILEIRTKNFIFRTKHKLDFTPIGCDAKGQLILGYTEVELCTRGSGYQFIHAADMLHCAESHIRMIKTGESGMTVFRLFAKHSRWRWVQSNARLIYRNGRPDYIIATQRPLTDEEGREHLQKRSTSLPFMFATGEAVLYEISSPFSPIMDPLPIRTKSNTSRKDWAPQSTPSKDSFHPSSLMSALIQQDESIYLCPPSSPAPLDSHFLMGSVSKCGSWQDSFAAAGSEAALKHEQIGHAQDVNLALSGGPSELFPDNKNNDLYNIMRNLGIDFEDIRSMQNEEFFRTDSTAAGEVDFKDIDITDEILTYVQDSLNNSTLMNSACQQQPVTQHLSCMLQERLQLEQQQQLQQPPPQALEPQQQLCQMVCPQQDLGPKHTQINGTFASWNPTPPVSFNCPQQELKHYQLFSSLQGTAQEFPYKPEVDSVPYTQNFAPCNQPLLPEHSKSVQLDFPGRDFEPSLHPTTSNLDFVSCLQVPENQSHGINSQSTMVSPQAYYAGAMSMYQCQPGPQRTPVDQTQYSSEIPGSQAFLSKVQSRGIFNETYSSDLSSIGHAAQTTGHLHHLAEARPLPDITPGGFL

[3] = target: CDK5/p25 (Homo sapiens, UniProt Q00535); assay: CDK5/p25 kinase assay (histone H1, 15 μM ATP); format: biochemical, mammalian
[4] = target: CDK1/cyclin B; assay: CDK1/cyclin B kinase assay (histone H1, 15 μM ATP); format: biochemical, starfish (Marthasterias glacialis)
[5] = target: GSK-3α/β; assay: GSK-3α/β kinase assay (GS-1 peptide, 15 μM ATP); format: biochemical, porcine
[6] = target: T1, AhR
[7] = Table 5, read-out: IC50 CDK5/p25
[8] = Table 4, read-out: IC50 CDK1/cycin B
[9] = Table 5, read-out: IC50 CDK1/cyclin B
[10] = Table 7, GSK-3, read-out: IC50exp
[11] = Table 1, read-out: IC50 CDK5/p25
[12] = Table 5, read-out: IC50 GSK-3α/β
[13] = Table 1, read-out: IC50 CDK1/cyclin B
[14] = Table 1, read-out: IC50 GSK-3 α/β
[15] = Table 6, read-out: GSK-3 (IC50 μM)
[16] = Table 6, read-out: CDK-5 (IC50 μM)

T1 sequence (P35869 11-848): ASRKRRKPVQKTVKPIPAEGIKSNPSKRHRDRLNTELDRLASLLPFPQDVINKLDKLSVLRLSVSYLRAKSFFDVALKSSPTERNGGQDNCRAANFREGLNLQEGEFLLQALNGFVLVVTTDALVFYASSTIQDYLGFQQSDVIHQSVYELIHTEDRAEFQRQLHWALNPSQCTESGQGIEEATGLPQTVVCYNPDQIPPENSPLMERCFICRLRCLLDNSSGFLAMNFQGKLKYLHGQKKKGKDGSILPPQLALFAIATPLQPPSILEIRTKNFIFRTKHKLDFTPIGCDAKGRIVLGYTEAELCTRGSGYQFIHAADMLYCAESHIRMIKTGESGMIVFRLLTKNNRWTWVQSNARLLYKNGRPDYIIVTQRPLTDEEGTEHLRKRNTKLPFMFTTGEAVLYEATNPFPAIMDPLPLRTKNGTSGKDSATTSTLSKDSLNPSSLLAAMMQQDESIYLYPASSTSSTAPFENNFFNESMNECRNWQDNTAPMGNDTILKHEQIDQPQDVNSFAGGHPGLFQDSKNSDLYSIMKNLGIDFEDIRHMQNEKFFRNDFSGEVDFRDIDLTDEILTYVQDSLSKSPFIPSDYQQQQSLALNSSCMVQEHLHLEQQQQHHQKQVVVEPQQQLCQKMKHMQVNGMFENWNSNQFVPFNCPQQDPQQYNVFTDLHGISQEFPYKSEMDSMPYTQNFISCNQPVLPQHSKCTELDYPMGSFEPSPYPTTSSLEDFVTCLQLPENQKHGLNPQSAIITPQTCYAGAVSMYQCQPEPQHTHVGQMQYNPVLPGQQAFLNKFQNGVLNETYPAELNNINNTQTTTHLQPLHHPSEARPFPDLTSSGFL
T1 sequence (P27540 whole entry partner): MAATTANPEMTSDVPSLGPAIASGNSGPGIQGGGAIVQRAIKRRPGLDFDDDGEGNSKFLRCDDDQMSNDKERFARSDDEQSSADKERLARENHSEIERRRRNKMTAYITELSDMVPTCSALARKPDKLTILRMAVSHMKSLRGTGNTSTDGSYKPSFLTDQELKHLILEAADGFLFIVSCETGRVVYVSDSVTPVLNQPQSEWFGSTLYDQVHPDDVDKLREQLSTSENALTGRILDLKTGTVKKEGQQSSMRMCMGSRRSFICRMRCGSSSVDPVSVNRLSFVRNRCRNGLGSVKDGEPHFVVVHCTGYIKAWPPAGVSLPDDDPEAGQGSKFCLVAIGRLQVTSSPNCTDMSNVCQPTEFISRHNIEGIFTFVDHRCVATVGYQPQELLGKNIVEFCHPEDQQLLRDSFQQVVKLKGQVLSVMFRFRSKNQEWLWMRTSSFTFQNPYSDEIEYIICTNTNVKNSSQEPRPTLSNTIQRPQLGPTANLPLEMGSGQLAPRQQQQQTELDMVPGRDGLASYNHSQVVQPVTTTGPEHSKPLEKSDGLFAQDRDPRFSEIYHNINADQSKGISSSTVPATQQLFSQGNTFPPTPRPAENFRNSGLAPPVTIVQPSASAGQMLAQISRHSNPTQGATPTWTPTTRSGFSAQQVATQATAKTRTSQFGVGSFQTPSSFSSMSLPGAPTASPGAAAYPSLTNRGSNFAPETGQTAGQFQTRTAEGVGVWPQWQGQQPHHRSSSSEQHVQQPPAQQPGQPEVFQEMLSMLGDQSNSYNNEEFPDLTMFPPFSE
CDK5/p25, sequence (Q00535 whole entry, species assumed): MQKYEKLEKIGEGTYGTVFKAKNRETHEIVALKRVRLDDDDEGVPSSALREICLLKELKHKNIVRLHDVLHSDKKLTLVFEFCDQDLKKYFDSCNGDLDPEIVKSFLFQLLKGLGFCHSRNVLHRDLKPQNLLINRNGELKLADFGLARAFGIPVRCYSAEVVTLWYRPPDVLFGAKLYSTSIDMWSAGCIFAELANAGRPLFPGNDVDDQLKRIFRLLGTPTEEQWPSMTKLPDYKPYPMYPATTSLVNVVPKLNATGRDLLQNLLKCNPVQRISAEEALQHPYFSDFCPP
CDK5/p25, sequence (Q15078 99-307 partner limits assumed, species assumed): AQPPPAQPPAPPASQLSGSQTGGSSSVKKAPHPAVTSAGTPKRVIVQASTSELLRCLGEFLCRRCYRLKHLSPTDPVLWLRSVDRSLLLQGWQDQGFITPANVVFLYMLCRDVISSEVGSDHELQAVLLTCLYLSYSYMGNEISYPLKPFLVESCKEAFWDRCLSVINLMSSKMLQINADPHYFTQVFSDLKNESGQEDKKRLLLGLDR

| Compound | EC50 [2] | IC50 [3, 7] | IC50 [4, 9] | IC50 [5, 10] | IC50 [5, 12] | other results |
| --- | --- | --- | --- | --- | --- | --- |
| 6-Chloroindirubin [5d] | 7 nM | > 100 µM | > 100000 nM | – | – | EC50 [1]: 30 nM; IC50 [4, 8]: > 100000 nM |
| O=C1Nc2ccc(F)cc2C1=C1Nc2ccccc2C1=O [5-Fluoroindirubin, reference compound] | – | – | – | 0.078 µM | – | – |
| O=C1Nc2ccc([N+](=O)[O-])cc2C1=C1Nc2ccccc2C1=O [5-Nitroindirubin, reference compound] | – | – | – | 0.042 µM | – | – |
| O=C1Nc2cc(Br)ccc2C1=C1Nc2ccccc2C1=O [5a, 6-Bromoindirubin] | 8 nM | 53 µM | – | – | – | EC50 [1]: 20 nM; IC50 [3, 11]: 53 µM |
| O=C1Nc2cc(F)ccc2/C1=C1/Nc2ccccc2C1=O [5b, 6-Fluoroindirubin] | – | 1 µM | – | – | – | – |
| O=C1Nc2cc(I)ccc2/C1=C1/Nc2ccccc2C1=O [5c, 6-Iodoindirubin] | 17 nM | 5.3 µM | 1600 nM | 0.055 µM | 0.055 µM | EC50 [1]: 40 nM; IC50 [4, 8]: 1600 nM; IC50 ([5]; Table 4, read-out: IC50 GSK-3): 0.055 µM |
| O=C1Nc2cc(Cl)c(Cl)cc2/C1=C1/Nc2ccccc2C1=O [5e, 5,6-Dichloroindirubin] | – | 60 µM | 45000 nM | 0.03 µM | 0.03 µM | – |
| Cc1cc2c(cc1Br)NC(=O)C2=C1Nc2ccccc2C1=O [5f, 6-Bromo-5-methylindirubin] | – | 60 µM | 30000 nM | 0.025 µM | 0.025 µM | – |
| O=C1Nc2cc(Br)c([N+](=O)[O-])cc2C1=C1Nc2ccccc2C1=O [5g, 6-Bromo-5-nitroindirubin] | – | > 100 µM | > 100000 nM | 0.1 µM | 0.1 µM | – |
| O=C1Nc2ccccc2/C1=C1/Nc2ccccc2C1=O [5h, indirubin] | 59 nM | – | – | – | – | EC50 [6]: 6 nM |
| C=Cc1ccc2c(c1)NC(=O)/C2=C1\Nc2ccccc2C1=O [5i, 6-Vinylindirubin] | – | 2.4 µM | 4200 nM | – | 0.24 µM | – |
| O=C1Nc2cc(F)ccc2C1=C1Nc2ccccc2C1=NO [7b, 6-Fluoroindirubin-3′-oxime] | – | 0.15 µM | 320 nM | 0.13 µM | 0.13 µM | – |
| O=C1Nc2cc(I)ccc2C1=C1Nc2ccccc2C1=NO [7c, 6-Iodoindirubin-3′-oxime] | 440 nM | 0.3 µM | – | – | – | EC50 [1]: > 100 nM |
| O=C1Nc2cc(Cl)ccc2C1=C1Nc2ccccc2C1=NO [7d, 6-Chloroindirubin-3′-oxime] | 200 nM | 0.1 µM | 650 nM | 0.02 µM | 0.02 µM | EC50 [1]: 4 nM; IC50 [4, 8]: 650 nM; IC50 ([5]; Table 4, read-out: IC50 GSK-3): 0.02 µM |
| Cc1cc2c(cc1Br)NC(=O)C2=C1Nc2ccccc2C1=NO [7f, 6-Bromo-5-methylindirubin-3′-oxime] | – | 0.13 µM | – | – | – | – |
| O=C1Nc2cc(Br)c([N+](=O)[O-])cc2C1=C1Nc2ccccc2C1=NO [7g, 6-Bromo-5-nitroindirubin-3′-oxime] | – | 0.15 µM | – | – | – | – |
| C=Cc1ccc2c(c1)NC(=O)C2=C1Nc2ccccc2C1=NO [7i, 6-Vinylindirubin-3′-oxime] | – | 0.42 µM | – | – | 0.06 µM | – |
| CC(=O)O/N=C1/C(=C2/C(=O)Nc3cc(I)ccc32)Nc2ccccc21 [8c, 6-Iodoindirubin-3′-acetoxime] | – | 1.3 µM | 2200 nM | – | 0.013 µM | – |
| CC(=O)O/N=C1/C(=C2/C(=O)Nc3cc(Cl)ccc32)Nc2ccccc21 [8d, 6-Chloroindirubin-3′-acetoxime] | – | 0.2 µM | 30000 nM | 0.017 µM | 0.017 µM | – |

| Compound | EC50 [2] | IC50 [3, 7] | IC50 [4, 9] | IC50 [5, 10] | IC50 [5, 12] | other results |
| --- | --- | --- | --- | --- | --- | --- |
| CC(=O)ON=C1C(=C2C(=O)Nc3cc(Cl)c(Cl)cc32)Nc2ccccc21 [8e, 5,6Dichloroindirubin-3′-acetoxime] | – | 0.1 µM | 30000 nM | 0.004 µM | 0.004 µM | – |
| CC(=O)ON=C1C(=C2C(=O)Nc3cc(Br)c(C)cc32)Nc2ccccc21 [8f, 6-Bromo-5-methylindirubin-3′-acetoxime] | – | 30 µM | 31000 nM | 0.007 µM | 0.007 µM | – |
| CC(=O)ON=C1C(=C2C(=O)Nc3cc(Br)c([N+](=O)[O-])cc32)Nc2ccccc21 [8g, 6-Bromo-5-nitroindirubin-3′-acetoxime] | – | 31 µM | 11000 nM | 0.006 µM | 0.006 µM | – |
| C=Cc1ccc2c(c1)NC(=O)C2=C1Nc2ccccc2C1=NOC(C)=O [8i, 6-vinylindirubin-3′-acetoxime] | – | 0.4 µM | 1600 nM | – | 0.065 µM | – |
| CON=C1C(=C2C(=O)Nc3ccccc32)Nc2ccccc21 [9b, Indirubin-3′-methoxime] | – | 0.4 µM | – | – | – | – |
| O=C1Nc2ccccc2/C1=C1/Nc2cc(Br)ccc2C1=O [12a, 6′-Bromoindirubin] | 1200 nM | > 100 µM | > 100000 nM | 22 µM | 22 µM | EC50 [1]: 100 nM; IC50 [3, 11]: > 100 µM; IC50 [4, 13]: > 100000 nM; IC50 [4, 8]: > 100000 nM; IC50 [5, 14]: 22 µM; IC50 ([5]; Table 4, read-out: IC50 GSK-3): 22 µM |
| O=C1Nc2cc(Br)ccc2/C1=C1/Nc2cc(Br)ccc2C1=O [12b, 6,6′-Dibromoindirubin] | > 10000 nM | > 100 µM | > 100000 nM | 4.5 µM | 4.5 µM | IC50 [3, 11]: > 100 µM; IC50 ([3]; read-out: IC50 with CDK5): > 100 µM; IC50 [4, 13]: ≥ 100000 nM; IC50 [4, 8]: > 100000 nM; IC50 [5, 14]: 4.5 µM; IC50 ([5]; Table 4, read-out: IC50 GSK-3): 4.5 µM; IC50 ([5]; read-out: IC50 with GSK-3): 4.5 µM |
| CN1C(=O)C(=C2Nc3ccccc3C2=O)c2ccc(Br)cc21 [12c, 6-Bromo-1-methylindirubin] | 50 nM | > 100 µM | > 100000 nM | – | > 100 µM | EC50 [1]: ≥ 100 nM; IC50 [3, 11]: > 100 µM; IC50 [4, 8]: > 100000 nM; IC50 [5, 14]: > 100 µM; IC50 ([5]; Table 4, read-out: IC50 GSK-3): > 100 µM |
| CN1C(=O)/C(=C2\Nc3ccccc3C2=O)c2ccccc21 [12d, 1-Methylindirubin] | 830 nM | > 100 µM | > 100000 nM | – | > 100 µM | EC50 [1]: 6 nM; IC50 [4, 8]: > 100000 nM; IC50 ([5]; Table 4, read-out: IC50 GSK-3): > 100 µM |
| O=C1Nc2cccc(Cl)c2/C1=C1/Nc2ccccc2C1=O [compound 6, 4-Chloroindirubin] | 310 nM | 10 µM | 10000 nM | – | > 100 µM | EC50 [1]: > 100 nM; IC50 [4, 8]: 10000 nM; IC50 ([5]; Table 4, read-out: IC50 GSK-3): > 100 µM |
| Cc1ccc2c(c1)/C(=C1/Nc3ccccc3C1=O)C(=O)N2 [compound 15, 5-methyl-indirubin, reference compound] | 25 nM | – | – | 0.062 µM | – | EC50 [6]: 40 nM; IC50 ([4]; read-out: IC50 CDK1/cycin B): 280 nM; IC50 ([5]; Table 4, read-out: IC50 GSK-3): 0.062 µM |
| O=C1Nc2ccc(Br)cc2/C1=C1/Nc2ccccc2C1=O [compound 16, 5-bromo-indirubin, reference compound] | 7 nM | – | – | 0.055 µM | – | EC50 [6]: 35 nM; IC50 [4, 8]: 230 nM; IC50 ([5]; Table 4, read-out: IC50 GSK-3): 0.055 µM |
| O=C1Nc2ccc(Cl)cc2/C1=C1/Nc2ccccc2C1=O [compound 17, 5-chloro-indirubin, reference compound] | 52 nM | – | – | 0.05 µM | – | EC50 [6]: 40 nM; IC50 [4, 8]: 280 nM; IC50 ([5]; Table 4, read-out: IC50 GSK-3): 0.05 µM |
| O=C1Nc2ccc(I)cc2/C1=C1/Nc2ccccc2C1=O [compound 18, 5-iodo-indirubin, reference compound] | – | – | – | – | – | EC50 [6]: 30 nM; IC50 [4, 8]: 220 nM |
| Nc1ccc2c(c1)C(=C1Nc3ccccc3C1=O)C(=O)N2 [compound 23, 5-Aminoindirubin] | – | – | – | – | – | IC50 [3]: 2.6 µM; IC50 [5, 15]: 1.5 µM |
| Nc1ccc2c(c1)/C(=C1/Nc3ccccc3C1=NO)C(=O)N2 [compound 24, 5-Amino-3′-oxime indirubin] | – | – | – | – | – | IC50 [3, 16]: 0.47 µM; IC50 [5, 15]: 0.75 µM |
| Nc1cc2c(cc1Br)NC(=O)C2=C1Nc2ccccc2C1=O [compound 27, 6-Bromo-5-aminoindirubin] | – | – | – | – | – | IC50 [3, 16]: 0.6 µM; IC50 [5, 15]: 0.054 µM |
| Nc1cc2c(cc1Br)NC(=O)/C2=C1\Nc2ccccc2C1=NO [compound 28, 6-Bromo-5-amino-3′-oxime indirubin] | – | – | – | – | – | IC50 [3, 16]: 0.57 µM; IC50 [5, 15]: 0.056 µM |
